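Interpolation was linear, between the two tested concentrations surrounding the appropriate level; five concentrations were tested over 48 hours in 96-well plates. GI50 = concentration required for 50% inhibition of growth.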 The source made the active and inactive calls. No stated cut-off is given here; in the data, active = GI50 up to about 1.1 µM and inactive = higher.
What was measured:
Experiment in all cases: NCI tumour cell line growth inhibition, 48 h
786-0 = system: 786-0
A498 = system: A498
A549 = system: A549
ACHN = system: ACHN
BT-549 = system: BT-549
CAKI-1 = system: CAKI-1
CCRF-CEM = system: CCRF-CEM
COLO 205 = system: COLO 205
DU-145 = system: DU-145
HCC 2998 = system: HCC 2998
HCT-116 = system: HCT-116
HCT-15 = system: HCT-15
HOP-62 = system: HOP-62
HOP-92 = system: HOP-92
HT-29 = system: HT-29
Hs-578T = system: Hs-578T
IGROV-1 = system: IGROV-1
K562 = system: K562
KM12 = system: KM12
M14 = system: M14
MCF7 = system: MCF7
MDA-MB-231 = system: MDA-MB-231
MDA-MB-435 = system: MDA-MB-435
MDA-N = system: MDA-N
MOLT-4 = system: MOLT-4
Malme-3M = system: Malme-3M
NCI-H226 = system: NCI-H226
NCI-H23 = system: NCI-H23
NCI-H460 = system: NCI-H460
NCI-H522 = system: NCI-H522
NCI/ADR-RES = system: NCI/ADR-RES
OVCAR-3 = system: OVCAR-3
OVCAR-4 = system: OVCAR-4
OVCAR-5 = system: OVCAR-5
OVCAR-8 = system: OVCAR-8
PC-3 = system: PC-3
RPMI-8226 = system: RPMI-8226
RXF 393 = system: RXF 393
SF-268 = system: SF-268
SF-539 = system: SF-539
SK-MEL-28 = system: SK-MEL-28
SK-MEL-2 = system: SK-MEL-2
SK-MEL-5 = system: SK-MEL-5
SK-OV-3 = system: SK-OV-3
SN12C = system: SN12C
SNB-19 = system: SNB-19
SNB-75 = system: SNB-75
SR = system: SR
SW-620 = system: SW-620
T47D = system: T47D
TK-10 = system: TK-10
U-251 = system: U-251
UACC-257 = system: UACC-257
UACC-62 = system: UACC-62
UO-31 = system: UO-31

Structure (SMILES): Cc1cccc(NC(=S)NNC(=O)c2cc(-c3ccccc3)nc3ccccc23)c1
- GI50 (786-0): 29.7 µM (inactive)
- GI50 (A498): 20.2 µM (inactive)
- GI50 (A549): 25.4 µM (inactive)
- GI50 (ACHN): 36.1 µM (inactive)
- GI50 (BT-549): 47.9 µM (inactive)
- GI50 (CAKI-1): 32.7 µM (inactive)
- GI50 (CCRF-CEM): 12.7 µM (inactive)
- GI50 (COLO 205): 19.5 µM (inactive)
- GI50 (DU-145): 34.4 µM (inactive)
- GI50 (HCC 2998): 25.1 µM (inactive)
- GI50 (HCT-116): 20.8 µM (inactive)
- GI50 (HCT-15): 36.7 µM
- GI50 (HOP-62): 32 µM (inactive)
- GI50 (HOP-92): 26.2 µM (inactive)
- GI50 (HT-29): 34.7 µM (inactive)
- GI50 (Hs-578T): 37 µM (inactive)
- GI50 (IGROV-1): 33.6 µM (inactive)
- GI50 (K562): 41.5 µM (inactive)
- GI50 (KM12): 31.8 µM (inactive)
- GI50 (M14): 35 µM (inactive)
- GI50 (MCF7): 20.5 µM (inactive)
- GI50 (MDA-MB-231): 27.9 µM (inactive)
- GI50 (MDA-MB-435): 28.4 µM (inactive)
- GI50 (MDA-N): 45.7 µM (inactive)
- GI50 (MOLT-4): 27.5 µM (inactive)
- GI50 (Malme-3M): 25 µM (inactive)
- GI50 (NCI-H226): 34.4 µM (inactive)
- GI50 (NCI-H23): 27.9 µM (inactive)
- GI50 (NCI-H460): 30.9 µM (inactive)
- GI50 (NCI-H522): 26.2 µM (inactive)
- GI50 (NCI/ADR-RES): 36.7 µM (inactive)
- GI50 (OVCAR-3): 26.8 µM (inactive)
- GI50 (OVCAR-4): 57.9 µM (inactive)
- GI50 (OVCAR-5): 35.5 µM (inactive)
- GI50 (OVCAR-8): 39.8 µM (inactive)
- GI50 (PC-3): 27.5 µM (inactive)
- GI50 (RPMI-8226): 30.1 µM (inactive)
- GI50 (RXF 393): 25.4 µM (inactive)
- GI50 (SF-268): 42 µM (inactive)
- GI50 (SF-539): 21.8 µM (inactive)
- GI50 (SK-MEL-28): 38.4 µM (inactive)
- GI50 (SK-MEL-2): 21.8 µM (inactive)
- GI50 (SK-MEL-5): 19.9 µM (inactive)
- GI50 (SK-OV-3): 25.6 µM (inactive)
- GI50 (SN12C): 40.1 µM (inactive)
- GI50 (SNB-19): 37.8 µM (inactive)
- GI50 (SNB-75): 36.6 µM (inactive)
- GI50 (SR): 17.9 µM (inactive)
- GI50 (SW-620): 36.3 µM (inactive)
- GI50 (T47D): 34.1 µM (inactive)
- GI50 (TK-10): 40.4 µM (inactive)
- GI50 (U-251): 30.1 µM (inactive)
- GI50 (UACC-257): 33.4 µM (inactive)
- GI50 (UACC-62): 38.5 µM (inactive)
- GI50 (UO-31): 23.1 µM (inactive)
